Data from patent publication US11642336B2, “5-HT2A agonists for use in treatment of depression” (priority 2019, dated 2023).

How the values were obtained:
D2 = D2 (Homo sapiens (Human), UniProt P14416); test: radioligand competition binding assay (Psychiatric Drug Screening Program)
D1 = D1 (Homo sapiens (Human), UniProt P21728); test: as above
5-HT2B = 5-HT2B (Homo sapiens (Human), UniProt P41595); settings: % of the Rmax of 5-HT; cited from earlier work
a1A = a1A (Homo sapiens (Human), UniProt P35348); test: radioligand competition binding assay (Psychiatric Drug Screening Program)
5-HT1e = 5-HT1e (Homo sapiens (Human), UniProt P28566); test: as above
D5 = D5 (Homo sapiens (Human), UniProt P21918); test: as above
5-HT2A = settings: cited from earlier work
5-HT6 = 5-HT6 (Homo sapiens (Human), UniProt P50406); test: radioligand competition binding assay (Psychiatric Drug Screening Program)
5-HT1B = 5-HT1B (Homo sapiens (Human), UniProt P28222); test: as above
5-HT1D = 5-HT1D (Homo sapiens (Human), UniProt P28221); test: as above
5-HT2C = settings: cited from earlier work
a2C = a2C (Homo sapiens (Human), UniProt P18825); test: radioligand competition binding assay (Psychiatric Drug Screening Program)
5-HT5A = 5-HT5A (Homo sapiens (Human), UniProt P47898); test: as above
5-HT7 = 5-HT7 (Homo sapiens (Human), UniProt P34969); test: as above
5-HT1A = 5-HT1A (Homo sapiens (Human), UniProt P08908); test: as above
a1B = a1B (Homo sapiens (Human), UniProt P35368); test: as above
D4 = D4 (Homo sapiens (Human), UniProt P21917); test: as above
D3 = D3 (Homo sapiens (Human), UniProt P35462); test: as above
a2A = a2A (Homo sapiens (Human), UniProt P08913); test: as above
[1] = Rmax ± S.D., % of the Rmax of 5-HT

Sequence of 5-HT1D (P28221 whole entry, looked up, species assumed): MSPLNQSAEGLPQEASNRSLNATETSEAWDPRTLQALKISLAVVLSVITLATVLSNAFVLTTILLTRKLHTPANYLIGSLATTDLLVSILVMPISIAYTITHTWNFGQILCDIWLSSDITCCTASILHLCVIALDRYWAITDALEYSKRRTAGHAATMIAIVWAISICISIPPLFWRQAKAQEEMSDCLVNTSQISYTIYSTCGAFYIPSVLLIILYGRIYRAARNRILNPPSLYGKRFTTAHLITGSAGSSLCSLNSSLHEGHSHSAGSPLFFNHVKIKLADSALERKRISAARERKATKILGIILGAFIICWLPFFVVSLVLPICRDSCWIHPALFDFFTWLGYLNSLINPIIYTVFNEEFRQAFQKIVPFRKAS
Sequence of 5-HT1e (P28566 whole entry, looked up, species assumed): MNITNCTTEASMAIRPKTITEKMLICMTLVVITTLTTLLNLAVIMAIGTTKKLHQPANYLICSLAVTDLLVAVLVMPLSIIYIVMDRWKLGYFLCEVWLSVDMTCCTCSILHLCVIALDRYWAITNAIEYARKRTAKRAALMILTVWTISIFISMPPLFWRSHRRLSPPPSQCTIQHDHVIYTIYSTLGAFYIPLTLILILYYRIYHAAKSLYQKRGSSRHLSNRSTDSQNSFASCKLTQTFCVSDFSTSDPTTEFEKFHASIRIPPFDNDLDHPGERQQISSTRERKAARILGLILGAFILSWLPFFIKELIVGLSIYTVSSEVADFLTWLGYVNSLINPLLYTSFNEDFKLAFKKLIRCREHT
Sequence of D2 (P14416 whole entry, looked up): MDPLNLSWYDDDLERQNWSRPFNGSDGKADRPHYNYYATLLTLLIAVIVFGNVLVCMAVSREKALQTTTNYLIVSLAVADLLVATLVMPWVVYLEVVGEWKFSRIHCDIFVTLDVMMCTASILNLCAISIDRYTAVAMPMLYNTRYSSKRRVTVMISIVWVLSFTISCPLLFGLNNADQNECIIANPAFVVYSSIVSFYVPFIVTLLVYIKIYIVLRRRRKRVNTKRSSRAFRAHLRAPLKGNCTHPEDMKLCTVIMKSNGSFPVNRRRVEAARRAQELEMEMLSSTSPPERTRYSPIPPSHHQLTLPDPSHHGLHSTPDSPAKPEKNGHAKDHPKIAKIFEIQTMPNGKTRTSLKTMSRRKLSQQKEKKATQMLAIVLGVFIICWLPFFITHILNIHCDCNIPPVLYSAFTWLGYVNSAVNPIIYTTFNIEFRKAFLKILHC
Sequence of 5-HT5A (P47898 whole entry, looked up, species assumed): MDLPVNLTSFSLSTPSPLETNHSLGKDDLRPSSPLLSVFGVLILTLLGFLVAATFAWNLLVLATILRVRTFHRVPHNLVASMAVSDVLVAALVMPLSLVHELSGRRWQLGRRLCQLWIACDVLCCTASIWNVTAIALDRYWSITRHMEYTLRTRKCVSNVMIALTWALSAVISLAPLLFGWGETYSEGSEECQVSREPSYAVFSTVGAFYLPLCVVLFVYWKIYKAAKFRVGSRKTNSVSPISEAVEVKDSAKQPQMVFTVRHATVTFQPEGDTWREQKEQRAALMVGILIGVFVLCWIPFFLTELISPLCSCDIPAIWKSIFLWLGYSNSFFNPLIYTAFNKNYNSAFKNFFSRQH
Sequence of D1 (P21728 whole entry, looked up): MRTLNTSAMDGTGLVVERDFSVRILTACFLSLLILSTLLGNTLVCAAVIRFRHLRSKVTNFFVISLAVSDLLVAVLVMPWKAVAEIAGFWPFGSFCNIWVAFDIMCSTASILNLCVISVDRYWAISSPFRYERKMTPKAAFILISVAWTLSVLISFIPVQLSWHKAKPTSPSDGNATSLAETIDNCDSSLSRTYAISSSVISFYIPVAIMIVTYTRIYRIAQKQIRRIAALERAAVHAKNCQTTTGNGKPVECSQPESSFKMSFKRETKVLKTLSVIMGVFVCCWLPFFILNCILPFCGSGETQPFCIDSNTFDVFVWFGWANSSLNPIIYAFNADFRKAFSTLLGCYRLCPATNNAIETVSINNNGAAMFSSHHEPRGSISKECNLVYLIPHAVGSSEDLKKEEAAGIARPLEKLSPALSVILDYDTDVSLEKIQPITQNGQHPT
Sequence of 5-HT1B (P28222 whole entry, looked up, species assumed): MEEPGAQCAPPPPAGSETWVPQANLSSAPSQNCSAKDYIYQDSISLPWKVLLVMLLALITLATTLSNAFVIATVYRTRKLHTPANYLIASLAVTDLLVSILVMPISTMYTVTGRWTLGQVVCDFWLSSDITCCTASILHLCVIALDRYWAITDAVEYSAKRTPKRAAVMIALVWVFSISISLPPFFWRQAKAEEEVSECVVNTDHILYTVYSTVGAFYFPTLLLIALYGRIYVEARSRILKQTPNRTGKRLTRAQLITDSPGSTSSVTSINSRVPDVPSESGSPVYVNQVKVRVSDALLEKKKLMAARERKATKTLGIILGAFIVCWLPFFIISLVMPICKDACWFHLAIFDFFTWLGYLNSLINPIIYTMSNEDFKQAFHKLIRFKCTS
Sequence of a1B (P35368 whole entry, looked up): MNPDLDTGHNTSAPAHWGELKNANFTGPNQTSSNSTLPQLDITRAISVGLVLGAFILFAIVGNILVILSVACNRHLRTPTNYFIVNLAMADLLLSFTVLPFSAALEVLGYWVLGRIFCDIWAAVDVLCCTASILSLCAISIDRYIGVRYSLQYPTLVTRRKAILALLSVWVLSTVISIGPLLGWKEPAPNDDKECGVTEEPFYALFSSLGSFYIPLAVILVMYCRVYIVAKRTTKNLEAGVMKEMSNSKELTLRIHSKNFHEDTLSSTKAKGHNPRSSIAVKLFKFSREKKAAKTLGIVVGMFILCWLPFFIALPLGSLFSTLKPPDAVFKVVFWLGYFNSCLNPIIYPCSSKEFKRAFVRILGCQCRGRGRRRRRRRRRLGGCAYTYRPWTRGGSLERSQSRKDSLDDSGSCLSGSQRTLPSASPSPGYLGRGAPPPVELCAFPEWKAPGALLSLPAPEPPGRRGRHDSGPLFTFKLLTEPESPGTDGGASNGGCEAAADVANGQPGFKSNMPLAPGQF
Sequence of a2C (P18825 whole entry, looked up): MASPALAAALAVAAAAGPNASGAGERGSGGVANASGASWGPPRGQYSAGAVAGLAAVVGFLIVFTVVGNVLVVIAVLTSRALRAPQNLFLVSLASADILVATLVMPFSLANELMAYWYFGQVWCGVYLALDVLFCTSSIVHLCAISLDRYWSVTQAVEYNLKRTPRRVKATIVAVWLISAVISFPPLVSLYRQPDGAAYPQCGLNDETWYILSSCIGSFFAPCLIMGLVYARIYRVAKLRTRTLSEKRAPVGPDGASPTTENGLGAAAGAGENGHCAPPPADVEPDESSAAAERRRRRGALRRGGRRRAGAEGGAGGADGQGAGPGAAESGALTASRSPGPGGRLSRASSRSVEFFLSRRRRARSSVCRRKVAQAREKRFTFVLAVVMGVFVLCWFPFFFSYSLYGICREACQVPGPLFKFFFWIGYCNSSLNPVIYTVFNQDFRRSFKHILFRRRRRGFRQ
Sequence of D5 (P21918 whole entry, looked up): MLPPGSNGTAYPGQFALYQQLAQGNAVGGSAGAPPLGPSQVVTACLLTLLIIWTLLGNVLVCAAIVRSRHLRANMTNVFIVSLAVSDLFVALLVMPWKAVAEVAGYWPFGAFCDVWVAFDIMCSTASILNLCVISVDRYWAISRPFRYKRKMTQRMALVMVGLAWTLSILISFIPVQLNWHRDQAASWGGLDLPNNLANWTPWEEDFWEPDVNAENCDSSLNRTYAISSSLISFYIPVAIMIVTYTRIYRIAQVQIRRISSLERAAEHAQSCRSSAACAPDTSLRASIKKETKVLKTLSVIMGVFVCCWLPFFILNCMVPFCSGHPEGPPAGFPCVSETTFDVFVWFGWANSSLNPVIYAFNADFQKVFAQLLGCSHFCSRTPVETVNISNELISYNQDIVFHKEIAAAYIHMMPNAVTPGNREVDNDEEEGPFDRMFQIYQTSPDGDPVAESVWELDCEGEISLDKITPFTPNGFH
Sequence of 5-HT6 (P50406 whole entry, looked up, species assumed): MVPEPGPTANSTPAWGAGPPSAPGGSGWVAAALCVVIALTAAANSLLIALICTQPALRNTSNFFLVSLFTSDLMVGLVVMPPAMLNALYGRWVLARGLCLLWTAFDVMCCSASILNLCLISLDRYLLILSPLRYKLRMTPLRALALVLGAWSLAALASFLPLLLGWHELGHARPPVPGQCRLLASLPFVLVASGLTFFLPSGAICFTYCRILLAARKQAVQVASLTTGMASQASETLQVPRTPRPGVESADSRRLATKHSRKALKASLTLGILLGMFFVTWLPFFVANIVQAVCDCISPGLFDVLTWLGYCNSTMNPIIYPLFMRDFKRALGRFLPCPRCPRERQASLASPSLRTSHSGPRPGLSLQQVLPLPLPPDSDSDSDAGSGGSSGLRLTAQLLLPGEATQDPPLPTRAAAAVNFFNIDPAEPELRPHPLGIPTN
Sequence of 5-HT2B (P41595 whole entry, looked up, species assumed): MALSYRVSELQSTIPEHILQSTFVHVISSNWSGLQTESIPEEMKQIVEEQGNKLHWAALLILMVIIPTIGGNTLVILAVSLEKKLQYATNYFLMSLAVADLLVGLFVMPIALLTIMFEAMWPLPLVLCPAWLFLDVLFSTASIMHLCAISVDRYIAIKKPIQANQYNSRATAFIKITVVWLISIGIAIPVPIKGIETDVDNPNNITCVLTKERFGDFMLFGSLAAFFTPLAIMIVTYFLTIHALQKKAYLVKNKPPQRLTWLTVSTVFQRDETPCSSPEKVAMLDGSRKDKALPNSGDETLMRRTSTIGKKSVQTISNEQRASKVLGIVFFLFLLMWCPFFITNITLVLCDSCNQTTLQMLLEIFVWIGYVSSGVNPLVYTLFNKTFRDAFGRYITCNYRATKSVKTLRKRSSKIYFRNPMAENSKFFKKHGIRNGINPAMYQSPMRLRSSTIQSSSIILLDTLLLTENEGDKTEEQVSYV

CN(C)CCc1c[nH]c2cccc(O)c12 [Psilocin, psilocin]
Ki (D2): > 10000 nM
Ki (D1): 20 nM
Rmax (%) 5-HT2B (5-HT2B): 45%
Ki (a1A): > 10000 nM
Ki (5-HT1e): 44 nM
Ki (D5): > 10000 nM
Ki (5-HT6): 72 nM
Ki (5-HT1B): 305 nM
Ki (5-HT1D): 19 nM
EC50 (5-HT2C; EC50 ± S.D.): 30 ± 18 nM
Rmax (%) 5-HT2C (5-HT2C; [1]): 51 ± 37%
Ki (a2C): 4400 nM
Ki (5-HT5A): 70 nM
Ki (5-HT7): 72 nM
Ki (5-HT1A): 63 nM
Ki (a1B): > 10000 nM
Ki (D4): > 10000 nM
Ki (D3): 100 nM
Ki (a2A): 2000 nM
